Assay results reported in publication PMC10359276, “Involvement of skin TRPV3 in temperature detection regulated by TMEM79 in mice” (Nature Communications, 2023).

Target: TRPV3 (mTRPV3) (Mus musculus, UniProt Q8K424)
Assay: cell-based

Chain of TRPV3 (mTRPV3) (Q8K424 whole entry): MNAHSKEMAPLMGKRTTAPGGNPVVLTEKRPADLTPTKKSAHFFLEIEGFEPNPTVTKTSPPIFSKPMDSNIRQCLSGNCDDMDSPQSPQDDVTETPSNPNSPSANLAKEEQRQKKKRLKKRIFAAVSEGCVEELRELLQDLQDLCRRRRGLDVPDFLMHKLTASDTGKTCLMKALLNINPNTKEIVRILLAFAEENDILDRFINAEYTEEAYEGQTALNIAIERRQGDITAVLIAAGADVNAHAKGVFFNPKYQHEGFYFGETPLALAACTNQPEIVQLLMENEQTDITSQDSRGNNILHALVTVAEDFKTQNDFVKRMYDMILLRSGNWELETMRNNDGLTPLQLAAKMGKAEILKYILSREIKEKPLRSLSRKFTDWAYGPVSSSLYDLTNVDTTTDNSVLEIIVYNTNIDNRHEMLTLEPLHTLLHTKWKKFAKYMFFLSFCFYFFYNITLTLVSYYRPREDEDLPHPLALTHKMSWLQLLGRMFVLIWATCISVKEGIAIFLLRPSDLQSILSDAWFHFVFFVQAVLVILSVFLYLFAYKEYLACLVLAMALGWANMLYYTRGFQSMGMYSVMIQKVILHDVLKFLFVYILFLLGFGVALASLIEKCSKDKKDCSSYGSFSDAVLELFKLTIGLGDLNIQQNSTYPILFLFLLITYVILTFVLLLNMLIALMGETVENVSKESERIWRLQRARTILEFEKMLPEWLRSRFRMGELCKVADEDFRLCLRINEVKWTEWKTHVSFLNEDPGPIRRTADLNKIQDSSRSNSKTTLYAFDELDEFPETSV

With `NCCOB(c1ccccc1)c1ccccc1` [2-APB] the EC50 was 57.4 ± 3.2 µM.
